Source: patent US20190112317A1, “ACTIVATORS OF AUTOPHAGIC FLUX AND PHOSPHOLIPASE D AND CLEARANCE OF PROTEIN AGGREGATES INCLUDING TAU AND TREATMENT OF PROTEINOPATHIES” (The Trustees of Columbia University in the City of New York, priority 2015, published 2019)

Test: Photodiode array (PDA) detection of compound in mouse brain
Type: in vivo
Settings: PDA spectrum, FIG. 1
From the text: FIG. 1 is a graph showing a photodiode array (PDA) spectrum of WHYKD8 in mouse brain.
A photodiode array (PDA) was used to detect WHYKD8 in mouse brain (FIG. 1).

Compound: Oc1ccc(CCNc2ncnc3ccc(Cl)cc23)cc1 [WHYKD8]
- Detection in mouse brain: readily detected
